Assay results taken from the NIST ThermoML archive (doi:10.1016/j.jct.2009.02.002).

Assay: xn = mol fraction of the nth substance listed
Details: 101 kPa, Liquid; for viscosity: Capillary tube (Ostwald / Ubbelohde) method; for mass density: Vibrating tube method; for speed of sound: automatically measured using an Anton Paar DSA 5000 instrument

CC(C)CCCC(C)CCCC(C)CCCCC(C)CCCC(C)CCCC(C)C (configuration not stated) [2,6,10,15,19,23-hexamethyltetracosane] + CC(C)CO
Details | mass density, 298.15 K [kg/m3] | mass density, 303.15 K [kg/m3] | mass density, 308.15 K [kg/m3] | speed of sound, 298.15 K [m/s] | speed of sound, 303.15 K [m/s] | speed of sound, 308.15 K [m/s] | viscosity, 298.15 K [mPa·s] | viscosity, 303.15 K [mPa·s] | viscosity, 308.15 K [mPa·s]
x2 = 0.0803 | 804.648 | 801.388 | 798.13 | 1377 | 1359.1 | 1341.4 | 23.81 | 18.82 | 15.28
x2 = 0.1032 | 804.528 | 801.259 | 797.982 | 1375.6 | 1357.7 | 1340 | 22.85 | 18.11 | 14.72
x2 = 0.1672 | 804.219 | 800.916 | 797.596 | 1371.4 | 1353.4 | 1335.6 | 20.71 | 16.5 | 13.45
x2 = 0.2045 | 804.051 | 800.733 | 797.401 | 1368.7 | 1350.8 | 1332.9 | 19.78 | 15.78 | 12.85
x2 = 0.2551 | 803.824 | 800.484 | 797.129 | 1364.9 | 1347.2 | 1329.2 | 18.76 | 14.97 | 12.18
x2 = 0.3201 | 803.546 | 800.183 | 796.807 | 1359.9 | 1341.8 | 1324 | 17.7 | 14.12 | 11.47
x2 = 0.417 | 803.131 | 799.716 | 796.307 | 1351.3 | 1333.4 | 1315.5 | 16.34 | 12.99 | 10.54
x2 = 0.4978 | 802.728 | 799.277 | 795.831 | 1343.1 | 1325.1 | 1307.2 | 15.11 | 12 | 9.757
x2 = 0.6316 | 801.934 | 798.413 | 794.872 | 1325.5 | 1307.7 | 1290.1 | 12.54 | 9.98 | 8.196
x2 = 0.7005 | 801.422 | 797.855 | 794.26 | 1313.6 | 1295.9 | 1278.1 | 10.9 | 8.721 | 7.217
x2 = 0.8028 | 800.494 | 796.852 | 793.147 | 1289.2 | 1271.7 | 1254.1 | 8.199 | 6.648 | 5.581
x2 = 0.8482 | 800.015 | 796.317 | 792.582 | 1274.6 | 1257.1 | 1239.6 | 6.959 | 5.693 | 4.802
x2 = 0.9095 | 799.392 | 795.551 | 791.791 | 1248.9 | 1231.6 | 1214.3 | 5.361 | 4.404 | 3.728
x2 = 0.9448 | 799.012 | 795.162 | 791.339 | 1229.5 | 1212.5 | 1195.4 | 4.53 | 3.703 | 3.115

CCCCCCCCCCCCCCCC [hexadecane] + CC(C)CO
Details | mass density, 298.15 K [kg/m3] | mass density, 303.15 K [kg/m3] | mass density, 308.15 K [kg/m3] | speed of sound, 298.15 K [m/s] | speed of sound, 303.15 K [m/s] | speed of sound, 308.15 K [m/s] | viscosity, 298.15 K [mPa·s] | viscosity, 303.15 K [mPa·s] | viscosity, 308.15 K [mPa·s]
x2 = 0.0505 | 770.506 | 766.982 | 763.479 | 1333.6 | 1314.5 | 1296.1 | 2.807 | 2.494 | 2.233
x2 = 0.108 | 770.704 | 767.145 | 763.586 | 1328.2 | 1309.5 | 1291.1 | 2.658 | 2.345 | 2.102
x2 = 0.1539 | 770.945 | 767.37 | 763.784 | 1324.2 | 1305.5 | 1287 | 2.601 | 2.277 | 2.023
x2 = 0.2202 | 771.403 | 767.797 | 764.189 | 1318.4 | 1299.8 | 1281.3 | 2.576 | 2.246 | 1.975
x2 = 0.2709 | 771.834 | 768.215 | 764.58 | 1313.8 | 1295.1 | 1276.6 | 2.596 | 2.235 | 1.952
x2 = 0.3389 | 772.519 | 768.878 | 765.22 | 1307.3 | 1288.7 | 1270.2 | 2.638 | 2.252 | 1.946
x2 = 0.4112 | 773.437 | 769.755 | 766.075 | 1299.9 | 1281.3 | 1262.8 | 2.672 | 2.292 | 1.967
x2 = 0.5043 | 774.946 | 771.22 | 767.482 | 1289.8 | 1271.2 | 1252.8 | 2.694 | 2.296 | 1.985
x2 = 0.5989 | 776.918 | 773.158 | 769.37 | 1277.8 | 1259.3 | 1241 | 2.676 | 2.295 | 1.998
x2 = 0.6938 | 779.505 | 775.707 | 771.873 | 1263.6 | 1245.3 | 1227.4 | 2.643 | 2.274 | 1.984
x2 = 0.8115 | 783.946 | 780.177 | 776.274 | 1241.5 | 1223.8 | 1206.2 | 2.673 | 2.28 | 2
x2 = 0.8638 | 786.74 | 782.888 | 778.972 | 1229.5 | 1211.9 | 1194.4 | 2.756 | 2.322 | 2.009
x2 = 0.9037 | 789.326 | 785.457 | 781.543 | 1219 | 1201.6 | 1184.3 | 2.874 | 2.379 | 2.046
x2 = 0.938 | 792.003 | 788.12 | 784.196 | 1209.3 | 1192.2 | 1175.2 | 3.023 | 2.469 | 2.082
